Test results from patent US5858980A, “Peptide fragments of myelin basic protein” (Autoimmune, Inc., priority 1995, dated 1999).

How the values were obtained:
actively induced EAE = assay: suppression of actively induced EAE (MBP/CFA immunization); assay type: in vivo, Lewis rats
[1] = system: short term T-cell lines from peripheral blood mononuclear cells; assay: T-cell line reactivity to MBP, PLP and MBP peptides (proliferation assay); assay type: cell-based, human; details: for mean frequency of T-cell lines reactive to the peptide, MS vs controls (FIG. 1): MS patients compared with combined normal and other neurologic disease controls; for MEAN FREQUENCY Ag REACTIVE LINES: mean +/- SEM
Method: A rapid T-cell cloning technique was used to examine whether there were immunodominant epitopes on human MBP reactive with Class II MHC phenotypes and the frequency of such reactivity. A total of 15,824 short term T-cell lines were generated from 51 human subjects by culturing peripheral blood mononuclear cells ([…]) with purified MBP (100 μg) followed 3 days later, and then every 3-4 days, by the addition of interleukin-2 (IL-2; from ABI, Columbia, Md.) and 2 units recombinant interleukin-4 (IL-4; Genzyme, Boston, Mass.). On Day 13 of culture, an aliquot from each line was tested for reactivity to MBP using the following proliferation assay: T-cell clones (1×10^5 cells/well) were plated in triplicate and cocultured with appropriate stimuli (i.e. 100 μg whole MBP or 5% IL-2) for 72 hours at 37° C., 90% humidity, 5% CO2, in 96 well flat bottomed microtiter plates (Costar). The cells were pulsed with 2 μCi [^3 H]TdR (2 Ci/mmole, New England Nuclear, Boston, Mass.) for the last 18 hours of culture. APCs were prepared by pulsing human Epstein-Barrvirus transformed human B-cells (the virus being commercially available from ATCC) or L-cells which are mouse cells transfected with human DR2 (L-cells are commercially available from ATCC under accession No. ATCC-CCL1 and can be transfected according to the method of Wilkinson, D. et al, J. Exp. Med., 1988, 167:1442-1458 using DNA encoding DR2 as per Wu, S. et al J. Immunol., 1987, 138:2953). B-cells or L-cells were used at 1×10^6 cells/well in complete media either in the presence or absence of 40 pM MBP or phospholipid protein (PLP) for 2 hours at 37° C., washing twice with 4° C. Hanks (Whittaker), followed by irradiation with 5000 rad. at 4° C. To stimulate T-cells without accessory APCs, 2 μM of MBP, PLP, or the appropriate fragment was added directly to the cells for the duration of the culture: 48 hours, followed by pulsing […] and then harvesting. Ten thousand APC's were used for 100,000 T-cell clones.
T-cell lines shown to be reactive to MBP or PLP were then tested using the same technique for reactivity to overlapping oligopeptide 20-mers encompassing the human MBP sequence as shown in Table 1 above. MBP and PLP reactivity frequency analysis was performed on patients with definite, relapsing-remitting MS (as diagnosed by Magnetic Resonance Imaging (MRI) and clinical examination), as well as on subjects with other neurologic diseases and on normal subjects (all age- and sex-matched to the MS patients).

[2] = other neurological disease (n = 10)

Molecule: guinea pig MBP peptide 131-150: control guinea pig MBP peptide (DYKSKGFKGAHDAQGTLSKI; UniProt P25188 131-150, looked up, fragment)
- suppression of EAE via IV tolerization (actively induced EAE; intravenous administration prior to immunization (FIG. 7)): did not suppress
- suppression of EAE via oral tolerization (actively induced EAE; oral administration prior to immunization (FIG. 7)): did not suppress

Molecule: 143-168: human MBP fragment of amino acids 143-168, second immunodominant domain (RHGSKYLATASTMDHARHGFLPRHRD; UniProt P02686 143-168, looked up, fragment)
- mean frequency of T-cell lines reactive to the peptide, MS vs controls (FIG. 1) [1]: both MS and control subjects showed high frequencies
- MBP-reactive cell lines that reacted with either MBP residues 84-102 or 143-168 ([1]; cell lines from patients with MS): 70-80%
- MBP-reactive T-cell lines that recognized either the 84-102 or the 143-168 peptide ([1]; control groups): about 34%
- Peptide Reactivity (Fraction of MBP-Reactive Lines) ([1]; subject NS-dd, stimulus IL-2): 1/2
- Peptide Reactivity (Fraction of MBP-Reactive Lines) ([1]; subject NS-dd, stimulus MBP): 6/12
- Peptide Reactivity (Fraction of MBP-Reactive Lines) ([1]; subject NS-jl, stimulus IL-2): 5/12
- Peptide Reactivity (Fraction of MBP-Reactive Lines) ([1]; subject NS-kw, stimulus MBP): 5/8
- Peptide Reactivity (Fraction of MBP-Reactive Lines) ([1]; subject five, stimulus IL-2): 5/6
- Peptide Reactivity (Fraction of MBP-Reactive Lines) ([1]; subject five, stimulus MBP): 6/7
- Peptide Reactivity (Fraction of MBP-Reactive Lines) ([1]; subject seven, stimulus IL-2): 2/3
- Peptide Reactivity (Fraction of MBP-Reactive Lines) ([1]; subject seven, stimulus MBP): 5/8
- Peptide Reactivity (Fraction of MBP-Reactive Lines) ([1]; subject six, stimulus IL-2): 1/2
- Peptide Reactivity (Fraction of MBP-Reactive Lines) ([1]; subject three, stimulus IL-2): 2/2
- Peptide Reactivity (Fraction of MBP-Reactive Lines) ([1]; subject three, stimulus MBP): 2/2
- Peptide Reactivity (Fraction of MBP-Reactive Lines) ([1]; subject two, stimulus IL-2): 4/4
- Peptide Reactivity (Fraction of MBP-Reactive Lines) ([1]; subject two, stimulus MBP): 8/10

Molecule: HHPARTAHYGSLPQKSEGRT [61-82, human MBP amino acid residues 61-82]
- mean frequency of T-cell lines reactive to the peptide, MS vs controls (FIG. 1) [1]: Significant but less striking increases

B1: PLP: proteolipid protein, myelin autoantigen (protein, UniProt P60201 2-277, looked up)
Myelin proteolipid protein: GLLECCARCLVGAPFASLVATGLCFFGVALFCGCGHEALTGTEKLIETYFSKNYQDYEYLINVIHAFQYVIYGTASFFFLYGALLLAEGFYTTGAVRQIFGDYKTTICGKGLSATVTGGQKGRGSRGQHQAHSLERVCHCLGKWLGHPDKFVGITYALTVVWLLVFACSAVPVYIYFNTWTTCQSIAFPSKTSASIGSLCADARMYGVLPWNAFPGKVCGSNLLSICKTAEFQMTFHLFIAAFVGAAATLVSLLTFMIAATYNFAVLKLMGRGTKF
- #Ag REACTIVE LINES / TOTAL # LINES ([1]; MS patients (n = 23)): 20/432
- MEAN FREQUENCY Ag REACTIVE LINES ([1]; MS patients (n = 23), per-subject reactive/total lines): 3.34 ± 1.56
- #Ag REACTIVE LINES / TOTAL # LINES [1, 2]: 3/384
- MEAN FREQUENCY Ag REACTIVE LINES [1, 2]: 0.9 ± 0.62
